Where a name gives a salt, the structure may show the parent alone.
Columns and labels:
[1] = Blood drug concentration analysis (LC-MS/MS) in In Vivo Depletion Assay; conditions: human CCR2 (hCCR2) knock-in, 057 background, mouse, whole blood, hCCR2 knock-in mice, IV 0.1 mpk compound + 10 mpk anti-cotinine antibody, 48 hours post-dose, read-out: Exposure of Compound of Formula (I) 48 hours post-dose
Experimental: (§1) Human CCR2 (hCCR2) knock-in mice (057 background) were dosed intravenously with a PBS solution containing a compound of Formula (I) to measure depletion of CCR2 expressing cells in peripheral blood. Peripheral blood from IV dosed mice was also analyzed to determine PK properties of the ARM compounds of Formula (I).
(§2) Administration to Animal: Solution formulation of antibody and compound of Formula (I) was injected (bolus injection) to the restrained mouse in the right/left lateral tail vein. Animals were dosed with 0.1 milligram per kilogram (mpk) of the compound of Formula (I) and 10 mpk of the anti-cotinine antibody.
Collection of Blood for PK: Blood was collected at time points 0.25 hour, 2 hours, and […] following administration (50 μL/time point) through retro-orbital bleeding under mild isoflurane anesthesia.
(§3) Terminal bleeding at end of experiment (48 hr): Approximately 250 μL of blood in K2EDTA tube and approximately 250 μL of blood in SST (serum separation tube) was collected from each mouse through retro-orbital bleeding under deep isoflurane anesthesia. After bleeding, each mouse was sacrificed by cervical dislocation. The blood distribution at termination was determined as follows: • For PK: 50 μL of K2EDTA blood was transferred to another tube for PK • Flow cytometry: Remaining blood (˜200 μL) was used for flow cytometry analysis. • For serum collection: serum separator tubes (BD) were centrifuged at 4° C., 5000 rpm for 15 minutes. Approximately 100 μL serum was separated and stored at −80° C. for further usage. • Blood drug concentration: Samples collected at the various timepoints (0.25 hr, 2 hr, 24 and 48 hr) were analyzed to determine blood drug concentration.
Drug concentration in blood samples was determined by an LC-MS/MS-based bioanalytical method developed at Syngene. Samples were analyzed on Q-Trap, API-5500 LC-MS/MS system coupled with Exion UHPLC system from SCIEX, USA operated in multiple reaction monitoring mode employing electrospray ionization technique in positive polarity. Analyte and internal standard peaks were resolved on Synergi Polar, 75×2.0 mm, 4μ column using mobile phase 10 mM Ammonium acetate in Milli-Q water as phase A and 0.1% Formic acid in acetonitrile as Phase B. Gradient elution was performed with initial composition 95% Phase A at 0.0 min, holding it for 0.2 minutes, ramping to 5% by 1.0 minute, keeping the same for next 0.5 minutes and coming back to 95% by 1.6 minutes. The total run time was 2 minutes.
Working dilutions for calibration curve and quality control standards were prepared by serially diluting 20 mg/mL stock solution with DMSO. Spiked concentrations for calibration curve in the whole blood ranged from 1 ng/mL to 1000 ng/mL. The working solution of internal standard (Verapamil, 25 ng/mL) was prepared in acetonitrile. 10 μL of the study sample and calibration curve, quality control, and blank whole blood samples were aliquoted in 96 deep well plates for processing. 10 μL of Milli-Q water was added to all the samples and briefly vortexed to initiate complete hemolysis. 10 μL of 20 mM dithiothreitol (OTT) was added to all the samples and incubated for 30 minutes at 37° C. The addition of DTT enhanced the recovery of ARM compounds of Formula (I) from the biological matrix. 300 μL of working internal standard solution was added to all samples except total blank and wash samples, where 300 μL of acetonitrile was added. All the samples were vortex mixed for 5 minutes, followed by centrifugation at 4000 rpm for 10 minutes at 4° C. Supernatants were transferred to the loading plate and injected 3 μL to LC-MS/MS system for analysis. The results are shown below in Table 4 and are reported as compound exposure 48 hours post-dose

[2] = tested on: CCR2 expressing cells (CD11b+Ly6c+ Hi) in peripheral blood; assay: In Vivo Depletion Assay (flow cytometry of peripheral blood); parameters: species or system Human CCR2 (hCCR2) knock-in mice; conditions: hCCR2 knock-in mice; IV 0.1 mpk compound + 10 mpk anti-cotinine antibody (mouse IgG2a Fc); peripheral blood at 48 hr
Experimental: as §1
Stock solution preparation: Stock solutions of compounds of Formula (I) were prepared at 20 mg/mL and 100 mg/mL in DMSO for PK/PD and dose tolerability studies respectively. Stock solutions were stored at −20° C. until further usage.
Formulations preparation: On the day of experiment, the stock solution of the compound of Formula (I) was removed from storage at −20° C. and thawed at room temperature. Anti-cotinine antibody having a heavy chain sequence of SEQ ID NO: 13 and a light chain sequence of SEQ ID NO: 14 (rabbit variable region sequence with mouse IgG2a Fc domain), if required was removed from storage at −80° C. and thawed at room temperature. Antibody vials were immediately transferred into wet ice after thawing. Compounds of Formula (I) were further diluted in DMSO as per experimental requirements.
Formulation composition: The formulation composition was Saline: DMSO: PBS. Saline was added based on the quantity required and then stock solution of the compound of Formula (I) prepared in DMSO, followed by addition of antibody in PBS. Formulations were incubated at room temperature for 30 minutes before administration to the mouse. DMSO was used at 1 to 2% (v/v) in the final formulation.
as §2, §3
CCR2 depletion in peripheral blood was determined by flow cytometry. Briefly, peripheral blood was collected from all animals at the end of study termination and processed. Blood samples were lysed using 1×RBC Lysis buffer and the resulting cell pellet was washed twice in FACS buffer (HBSS containing 5% FBS). Cells were subjected to Fc blocking using mouse Fc block from Biolegend (Trustain, anti-mouse CD16/32, Cat: 101319) to block non-specific binding followed by surface staining for immune markers (CD45, CD3, CD11b, Ly6C, human CCR2). Surface staining was done for 30 minutes in ice and cells were washed twice to remove unbound antibodies. Cells were stained with 7AAD to determine viability and acquired on BD FACSVerse flow cytometer. Appropriate FMO controls and single-color controls were included in the experiment for gating and compensation respectively.
Percent depletion of CD11b+Ly6c+ Hi cells and CCR2 expression for the different treatment groups was determined. The results are shown below in Table 4 and are reported as percent (%) depletion of CCR2 expressing cells.

| Compound | concentration at 48 h [1] | % Depletion of CCR2 expressing cells [2] |
| --- | --- | --- |
| CO[C@@H]1COCC[C@@H]1N[C@@H]1CC[C@](CCCNC(=O)CCOCCOCCOCCOCCOCCOCCOCCOCCOCCOCCOCCOCCNC(=O)[C@H]2CC(=O)N(C)[C@@H]2c2cccnc2)(C(=O)N2CCc3ncc(C(F)(F)F)cc3C2)C1 [Example 1, (2S,3S)—N-(43-((1S,3R)-3-(((3S,4S)-3-methoxytetrahydro-2H-pyran-4-yl)amino)-1-(3-(trifluoromethyl)-5,6,7,8-tetrahydro-1,6-naphthyridine-6-carbonyl)cyclopentyl)-39-oxo-3,6,9,12,15,18,21,24,27,30,33,36-dodecaoxa-40-azatritetracontyl)-1-methyl-5-oxo-2-(pyridin-3-yl)pyrrolidine-3-carboxamide] | 55.7 ng/mL | 91.67% |
| CO[C@@H]1COCC[C@@H]1N[C@@H]1CC[C@](CCC2CCN(C(=O)[C@H]3CC[C@H](NC(=O)CCCO[C@H]4CC[C@H](OCCNC(=O)[C@H]5CC(=O)N(C)[C@@H]5c5cccnc5)CC4)CC3)CC2)(C(=O)N2CCc3ncc(C(F)(F)F)cc3C2)C1 [Example 2, (2S,3S)—N-(2-(((1R,4S)-4-(4-(((1S,4R)-4-(4-(2-((1S,3R)-3-(((3S,4S)-3-Methoxytetrahydro-2H-pyran-4-yl)amino)-1-(3-(trifluoromethyl)-5,6,7,8-tetrahydro-1,6-naphthyridine-6-carbonyl)cyclopentyl)ethyl)piperidine-1-carbonyl)cyclohexyl)amino)-4-oxobutoxy)cyclohexyl)oxy)ethyl)-1-methyl-5-oxo-2-(pyridin-3-yl)pyrrolidine-3-carboxamide] | 53.2 ng/mL | 97.7% |
| CO[C@@H]1COCC[C@@H]1N[C@@H]1CC[C@](CCCNC(=O)[C@H]2CC[C@H](NC(=O)CCCO[C@H]3CC[C@H](OCCNC(=O)[C@H]4CC(=O)N(C)[C@@H]4c4cccnc4)CC3)CC2)(C(=O)N2CCc3ncc(C(F)(F)F)cc3C2)C1 [Example 3, (2S,3S)-N-(2-(((1R,4S)-4-(4-(((1S,4R)-4-((3-((1S,3R)-3-(((3S,4S)-3-Methoxytetrahydro-2H-pyran-4-yl)amino)-1-(3-(trifluoromethyl)-5,6,7,8-tetrahydro-1,6-naphthyridine-6-carbonyl)cyclopentyl)propyl)carbamoyl)cyclohexyl)amino)-4-oxobutoxy)cyclohexyl)oxy)ethyl)-1-methyl-5-oxo-2-(pyridin-3-yl)pyrrolidine-3-carboxamide] | 31.3 ng/mL | 98.4% |
| CO[C@@H]1COCC[C@@H]1N[C@@H]1CC[C@](CCCNC(=O)[C@H]2CC[C@@H](NC(=O)CCCO[C@H]3CC[C@@H](OCCNC(=O)[C@H]4CC(=O)N(C)[C@@H]4c4cccnc4)CC3)CC2)(C(=O)N2CCc3ncc(C(F)(F)F)cc3C2)C1 [Example 4, (2S,3S)-N-(2-(((1S,4R)-4-(4-(((1R,4S)-4-((3-((1S,3R)-3-(((3S,4S)-3-Methoxytetrahydro-2H-pyran-4-yl)amino)-1-(3-(trifluoromethyl)-5,6,7,8-tetrahydro-1,6-naphthyridine-6-carbonyl)cyclopentyl)propyl)carbamoyl)cyclohexyl)amino)-4-oxobutoxy)cyclohexyl)oxy)ethyl)-1-methyl-5-oxo-2-(pyridin-3-yl)pyrrolidine-3-carboxamide, Formic acid salt] | 26.6 ng/mL | 99.69% |
| CO[C@@H]1COCC[C@@H]1N[C@@H]1CC[C@](CCCCNC(=O)[C@H]2CC[C@H](NC(=O)CCCO[C@H]3CC[C@H](OCCNC(=O)[C@H]4CC(=O)N(C)[C@@H]4c4cccnc4)CC3)CC2)(C(=O)N2CCc3ncc(C(F)(F)F)cc3C2)C1 [Example 7, (2S,3S)-N-(2-(((1R,4S)-4-(4-(((1S,4R)-4-((4-((1S,3R)-3-(((3S,4S)-3-Methoxytetrahydro-2H-pyran-4-yl)amino)-1-(3-(trifluoromethyl)-5,6,7,8-tetrahydro-1,6-naphthyridine-6-carbonyl)cyclopentyl)butyl)carbamoyl)cyclohexyl)amino)-4-oxobutoxy)cyclohexyl)oxy)ethyl)-1-methyl-5-oxo-2-(pyridin-3-yl)pyrrolidine-3-carboxamide] | 54.4 ng/mL | 86.93% |
| CO[C@@H]1COCC[C@@H]1N[C@@H]1CC[C@](CCNC(=O)[C@H]2CC[C@H](NC(=O)CCCO[C@H]3CC[C@H](OCCNC(=O)[C@H]4CC(=O)N(C)[C@@H]4c4cccnc4)CC3)CC2)(C(=O)N2CCc3ncc(C(F)(F)F)cc3C2)C1 [Example 8, (2S,3S)-N-(2-(((1R,4S)-4-(4-(((1R,4R)-4-((2-((1R,3R)-3-(((3S,4S)-3-Methoxytetrahydro-2H-pyran-4-yl)amino)-1-(3-(trifluoromethyl)-5,6,7,8-tetrahydro-1,6-naphthyridine-6-carbonyl)cyclopentyl)ethyl)carbamoyl)cyclohexyl)amino)-4-oxobutoxy)cyclohexyl)oxy)ethyl)-1-methyl-5-oxo-2-(pyridin-3-yl)pyrrolidine-3-carboxamide] | 74.9 ng/mL | 99.22% |
| CO[C@@H]1COCC[C@@H]1N[C@@H]1CC[C@](CCCCCNC(=O)[C@H]2CC[C@H](NC(=O)CCCO[C@H]3CC[C@H](OCCNC(=O)[C@H]4CC(=O)N(C)[C@@H]4c4cccnc4)CC3)CC2)(C(=O)N2CCc3ncc(C(F)(F)F)cc3C2)C1 [Example 9, (2S,3S)-N-(2-(((1R,4S)-4-(4-(((1S,4R)-4-((5-((1S,3R)-3-(((3S,4S)-3-Methoxytetrahydro-2H-pyran-4-yl)amino)-1-(3-(trifluoromethyl)-5,6,7,8-tetrahydro-1,6-naphthyridine-6-carbonyl)cyclopentyl)pentyl)carbamoyl)cyclohexyl)amino)-4-oxobutoxy)cyclohexyl)oxy)ethyl)-1-methyl-5-oxo-2-(pyridin-3-yl)pyrrolidine-3-carboxamide] | 49.8 ng/mL | 99% |
